What was measured:
Assay in all cases: combination Emax (second highest fraction inhibited in the dose matrix, 72 h); higher = more inhibition; extreme values may be limits of the assay
[1] = system: SNU-175 (Colorectal Carcinoma)
How it was run: (§1)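 After 24 hours at 37°C and 5% CO2 in 1536-well plates, cells in DMEM/F12 or RPMI plus 10% FBS received two-drug dose matrices for 72 hours. Viability came from CellTiter-Glo 2.0 luminescence and was scaled as inhibition, anchored at 0 by vehicle wells and at 1 by blank wells. Combination Emax is taken as the second-highest inhibition in the matrix, and Bliss excess as the observed combination effect less EA + EB − EA·EB, with EA and EB the single-agent effects.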

[2] = system: COLO-684 (Endometrial Carcinoma)
How it was run: as §1

[3] = system: RPMI-8866 (Chronic Myelogenous Leukemia)
How it was run: as §1

[4] = system: CML-T1 (Chronic Myelogenous Leukemia)
How it was run: as §1

[5] = system: AN3-CA (Endometrial Carcinoma)
How it was run: as §1

[6] = system: SJRH30 (Rhabdomyosarcoma)
How it was run: as §1

[7] = system: Calu-6 (Non-Small Cell Lung Carcinoma)
How it was run: as §1

[8] = system: BALL-1 (B-Lymphoblastic Leukemia)
How it was run: as §1

RT4 (Bladder Carcinoma) = system: RT4 (Bladder Carcinoma)
How it was run: as §1

[9] = system: Becker (Low Grade Glioma)
How it was run: as §1

[10] = system: NCI-H1755 (Lung Adenocarcinoma)
How it was run: as §1

[11] = system: NCI-H1623 (Lung Adenocarcinoma)
How it was run: as §1

[12] = system: SW684 (Other Solid Carcinomas)
How it was run: as §1

[13] = system: FLO-1 (Esophageal Adenocarcinoma)
How it was run: as §1

[14] = system: EB-3 (Burkitt's Lymphoma)
How it was run: as §1

CHL-1 (Melanoma) = system: CHL-1 (Melanoma)
How it was run: as §1

[15] = system: NCI-H1563 (Lung Adenocarcinoma)
How it was run: as §1

ES-2 (Ovarian Carcinoma) = system: ES-2 (Ovarian Carcinoma)
How it was run: as §1

KYM-1 (Rhabdomyosarcoma) = system: KYM-1 (Rhabdomyosarcoma)
How it was run: as §1

[16] = system: HSC-3 (Oral Cavity Carcinoma)
How it was run: as §1

SMILES	combination Emax [1]	combination Emax [2]	combination Emax [3]	combination Emax [4]	combination Emax [5]	combination Emax [6]	combination Emax [7]	combination Emax [8]	combination Emax (RT4 (Bladder Carcinoma))	combination Emax [9]	combination Emax [10]	combination Emax [11]	combination Emax [12]	combination Emax [13]	combination Emax [14]	combination Emax (CHL-1 (Melanoma))	combination Emax [15]	combination Emax (ES-2 (Ovarian Carcinoma))	combination Emax (KYM-1 (Rhabdomyosarcoma))	combination Emax [16]
C[C@@H]1COCCN1c1cc(C2([S@](C)(=N)=O)CC2)nc(-c2ccnc3[nH]ccc23)n1 [AZD6738] + O=C(c1cc(Cc2n[nH]c(=O)c3ccccc23)ccc1F)N1CCN(C(=O)C2CC2)CC1 [Olaparib] (first compound max 10 µM, 7x7, partner max 10 µM)	0.532	0.685	0.982	0.966	0.577	0.619	0.684	0.983	0.443	0.601	0.793	0.693	0.422	0.75	0.617	0.577	0.223	0.662	0.792	0.404
Cc1cc2ncnn2cc1Nc1ncc2c(n1)n(C1CCOCC1)c(=O)n2C [AZD7648] + C=CCn1c(=O)c2cnc(Nc3ccc(N4CCN(C)CC4)cc3)nc2n1-c1cccc(C(C)(C)O)n1 [AZD1775] (first compound max 10 µM, partner max 1 µM)	0.53	0.722	0.971	0.941	0.465	0.833	0.779	0.983	0.446	0.311	0.77	0.505	0.32	0.802	0.667	0.704	0.629	0.661	0.33	0.311
Cc1cc2ncnn2cc1Nc1ncc2c(n1)n(C1CCOCC1)c(=O)n2C [AZD7648] + CCN(CCO)CCCOc1ccc2c(Nc3cc(CC(=O)Nc4cccc(F)c4)[nH]n3)ncnc2c1 [AZD2811] (first compound max 10 µM, 7x7, partner max 1 µM)	0.646	0.302	0.732	0.49	0.354	0.24	0.317	0.53	0.491	0.214	0.599	0.28	0.352	0.406	0.554	0.308	0.555	0.288	0.182	0.455
Cc1cc2ncnn2cc1Nc1ncc2c(n1)n(C1CCOCC1)c(=O)n2C [AZD7648] + CN(C)CCCOc1ccc(-c2ccc3ncc4c(c3c2)n(C2CCOCC2)c(=O)n4C)cn1 [AZD0156] (first compound max 10 µM, 7x7, partner max 1 µM)	0.173	0.28	0.638	0.388	0.321	0.165	0.381	0.295	0.42	0.184	0.362	0.257	0.268	0.358	0.585	0.253	0.49	0.295	0.165	0.174
Cc1cc2ncnn2cc1Nc1ncc2c(n1)n(C1CCOCC1)c(=O)n2C [AZD7648] + C[C@@H]1COCCN1C2=NC(=NC(=C2)C3(CC3)[S@](=N)(=O)C)C4=C5C=CNC5=NC=C4 [AZD6738] (first compound max 10 µM, 7x7, partner max 10 µM)	0.537	0.764	0.969	0.936	0.435	0.801	0.741	0.986	0.488	0.607	0.883	0.588	0.383	0.668	0.663	0.798	0.498	0.743	0.697	0.405
Cc1cc2ncnn2cc1Nc1ncc2c(n1)n(C1CCOCC1)c(=O)n2C [AZD7648] + O=C(c1cc(Cc2n[nH]c(=O)c3ccccc23)ccc1F)N1CCN(C(=O)C2CC2)CC1 [Olaparib] (first compound max 10 µM, 7x7, partner max 10 µM)	0.0944	0.238	0.594	0.71	0.304	0.0648	0.355	0.826	0.28	0.12	0.263	0.446	0.154	0.208	0.377	0.134	0.331	0.283	0.274	0.15

— the supplement of paper PMC11061612
